According to patent US20170246146A1, “POLYPHENOL FOR WOUND HEALING” (IC-MedTech Corporation, priority 2012, published 2017):

Tests used:
[1] = test system: Human foreskin fibroblasts; assay: Scratch wound assay, fibroblasts; assay type: cell-based
Experimental: (§1) A scratch wound assay was employed to evaluate the in vitro wound healing capacity of APATONE® and TOLECINE®. For the scratch-wound assay, cells were seeded on 6-well culture plates. At 80% cell confluence, a scratch-wound was produced using a sterile pipette tip and the size of the gap was measured and set to 100%. The cells were treated with test agents at various concentrations and the closing of the scratch-wound was measured at 24, 48, and 72 hrs. This experiment was performed three times for each cell line. Human foreskin fibroblasts were employed to optimize the assay because of the involvement of fibroblasts in wound healing. Human skin fibroblasts were scratched and then sham treated or treated with VC alone or APATONE® for 24 hrs.

[2] = test system: MatTek EPIDERMFT™ (Full Thickness skin) tissue; assay: MatTek EPIDERM MTT Viability Assay (dermal irritation potential); assay type: cell-based, Human
Experimental: The MatTek EPIDERM™ MTT Viability Assay was employed as a quantitative method for assessing the dermal irritation potential of TOLECINE®. MatTek EPIDERMFT™ (Full Thickness skin) tissue samples were treated with TOLECINE® (neat) or a positive control (1% Triton X-100) for various exposure times ranging from 1 to 24 hrs. Negative controls (undosed tissues) were tested for 8 hrs only. Following treatment, the viability of the tissues were determined using MTT uptake and conversion and the absorbance of each sample was measured at 540 nm using a reference wavelength of 690 nm. The viability was then expressed as a percent of control values. The mean percent of each time point was used to calculate an ET50, which represented the time at which the EPIDERMFT™ tissue viability was reduced 50% compared to the control tissue.

prostaglandin E2 (PGE-2) = assay: PGE-2 ELISA in EPIDERMFT assay medium; assay type: cell-based, Human; conditions: 24 hr exposure; negative control 6.1 ng/mL
Experimental: (§2) Enzyme-linked immunosorbent assay (ELISA) kits were used to test for the presence of the cytokine interleukin-1 alpha (IL-1α) and the inflammatory mediator prostaglandin E2 (PGE-2) in the assay medium. Approximately 1 mL of the media from beneath the tissue millicells were sampled at the end of dosing and incubation. The assays were conducted according to the manufacturer's directions on both undiluted samples and samples diluted to 10% in order to obtain the detectable protein range of the ELISA kits. Protein standards were run with both ELISAs in order to derive standard curves.

[3] = test system: interleukin-1 alpha (IL-1α); assay: IL-1α ELISA in EPIDERMFT assay medium; assay type: cell-based, Human; conditions: 24 hr exposure; negative control 8.156 pg/mL
Experimental: as §2

VEGF = VEGF production (VEGF Quantiglo Immunoassay); assay type: cell-based, Human; conditions: for VEGF: keratinocytes
Experimental: Human adult keratinocytes were plated into a 6 well plate and allowed to grow to >80% confluency. The back of a rubber scraper was then used to scratch each plate, creating a uniform linear wound across each well. Cells were then rinsed with media to remove non-adherent cells and drugs at indicated concentrations were added. Media aliquots were taken at 1, 3, 6, or 16 hrs and spun down at 6,250 rpm for 10 minutes. Supernatants were then collected and stored at −4 ° C. until assayed using the VEGF Quantiglo Immunoassay (Research and Development Systems) according to kit instructions.

[4] = test system: full thickness excision wounds; assay: Wound healing studies in mice; assay type: in vivo, Balbc/J male mice; conditions: topical, days 0-5, by day 5, glycerin 27%
Experimental: Sixty, 5-6 week old Balbc/J male mice were ear notched for identification and housed in individually and positively ventilated polycarbonate cages with HEPA filtered air. Bed-o-cob corn cob bedding were used and cages were changed every two weeks. The animal room was lighted entirely with artificial fluorescent lighting, with a controlled 12 hr light/dark cycle. The normal temperature and relative humidity ranges in the animal rooms were 22±4° C. and 50±15%, respectively. The animal rooms were set to have 15 air exchanges per hour. Filtered tap water, acidified to a pH of 2.8 to 3.1, and rodent chow were provided ad libitum.
Following a 5 to 7 days acclimation, mice were randomized by body weight into 6 cohorts of 10 mice each. On study day 0 (D0), mice were anesthetized and two full thickness excision wounds (˜6 mm) were made on the dorsum (backs) of mice. One of the wounds was covered using a semi-occlusive polyurethane dressing (TEGADERM™). […]
Wound measurements were made on days 5, 7, 9, and 11. […] Traces were captured by scan and analyzed by a computer imaging software. […]
After being wounded, the mice had saddles applied around the wounds to prevent cross contamination and wound closure due to constriction. […] At day 5, test agents were removed and changes in wound area were measured in an effort to gauge the persistence of the compounds in the wound site.

intracellular peroxides = assay: Pro-oxidant production (DCFH-DA fluorescence); assay type: cell-based
Experimental: Production of intracellular peroxides was monitored spectrofluorometrically using dichlorofluorescein diacetate (DCFH-DA) as a fluorescent dye. Cell suspensions were treated with DCFH-DA at a final concentration of 100 μM in the medium. Oxidation of DCFH by peroxides yields dichlorofluorescein (DCF). Fluorescence was monitored at the excitation and emission wavelengths of 485 and 530 nm, respectively, using a fluorescence plate reader (50 cycles per 20 s at 37° C.) (Biotek Synergy HT®). Hydrogen peroxide (μM) was determined based on fluorescence generated from a hydrogen peroxide standard curve.
Apatone production of hydrogen peroxide was determined based a standard curve. Serial dilutions of Apatone (1000/10, 500/5, 250/2.5, 125/1.25, and 62.5/0.625) were then added to cells pre-treated with DCF-DA and read over a series of time points (1, 3, 5, and 24 hrs).

Keratinocytes = assay: Scratch wound assay, keratinocytes; assay type: cell-based; conditions: compared with fibroblast data
Experimental: as §1
Keratinocytes were grown to 90% confluence and then scratched to generate a wound. Cells were then treated with sham (fresh media) or a single dose of APATONE® at 75 μM sodium ascorbate and 0.75 μM menadione sodium bisulfate. […] Without being limited by any theory, the decreased closure of APATONE® during the second 24 hrs probably reflects metabolism of the vitamins by the keratinocytes.

O=C1O[C@H]([C@@H](O)CO)C(O)=C1O [VC, L-ascorbic acid, reference compound]
width of the scratch ([1]; 2,000 μM VC, at 24 hrs, 28.0 μm immediately after scratching (sham 15.8 to 8.3 μm)): 16.9 μm | activity in scratch wound assay ([1]; VC alone at 75 μM): not active | wound closed ([1]; fibroblasts, after 24 hrs, FIG. 1 (VC 2000 μM), sham about 57%): about 43%

Triton X-100 [positive control, reference compound]
ET50 (time at which tissue viability was reduced 50% compared to control) ([2]; TOLECINE® neat, positive control 1% Triton X-100, exposure 1 to 24 hrs, MTT): 10.4 h | PGE-2 levels (prostaglandin E2 (PGE-2)): 1211 ng/mL | IL-1α levels [3]: 168 pg/mL

Oc1ccc(C=Cc2cc(O)cc(O)c2)cc1 [resveratrol, reference compound]
VEGF production compared with TOLECINE® (VEGF; 20 μM each): less than the VEGF production by TOLECINE® at 20 μM | VEGF (VEGF; resveratrol 20 μM, 1 hr, sham 12.4): 139.0 pg/mL | VEGF (VEGF; resveratrol 20 μM, 3 hrs, sham 13.2): 166.7 pg/mL | VEGF (VEGF; resveratrol 20 μM, 6 hrs, sham 42.0): 196 pg/mL | VEGF (VEGF; resveratrol 20 μM, 6 hrs, sham 42.0, listed as RES): 196.0 pg/mL | VEGF (VEGF; resveratrol 20 μM, 16 hrs, sham 67.4): 274 pg/mL | VEGF (VEGF; resveratrol 20 μM, 16 hrs, sham 67.4, listed as RES): 274.1 pg/mL

Oc1ccc(C#Cc2ccc(O)cc2)cc1 [TOLECINE®, 4,4′-(ethyne-1,2-diyl)diphenol]
wound closure ([4]; 2.5% in glycerin): 93% | wound closure ([4]; 5% TOLECINE® in glycerin): 87% | ET50 (time at which tissue viability was reduced 50% compared to control) ([2]; human): greater than 24 hrs | wound closure ([1]; 2.5 μM, 24 hrs, sham 30%): 85% | wound closure ([1]; 2.5 μM, 48 hrs, sham 80%): 100% | wound closure ([1]; 5 μM, 24 hrs, sham 30%): 85% | wound closure ([1]; 5 μM, 48 hrs, sham 80%): 100% | wound closure ([1]; 10 μM, 24 hrs, sham 30%): 100% | PGE-2 levels (prostaglandin E2 (PGE-2)): 9.5 ng/mL | hydrogen peroxide production, dose dependence (intracellular peroxides; FIGS. 4-6): dose dependent | hydrogen peroxide production over time (intracellular peroxides; keratinocytes exposed for 5 hrs or more): continued to increase | wound closure in keratinocytes (Keratinocytes): closely approximated that observed with fibroblasts | VEGF (VEGF; 10 μM, 1 hr, sham 12.4): 32.6 pg/mL | VEGF (VEGF; 10 μM, 3 hrs, sham 13.2): 29.4 pg/mL | VEGF (VEGF; 10 μM, 6 hrs, sham 42.0): 120 pg/mL | VEGF (VEGF; 10 μM, 6 hrs, sham 42.0, listed as TOL): 120.7 pg/mL | VEGF (VEGF; 10 μM, 16 hrs, sham 67.4): 237 pg/mL | VEGF (VEGF; 10 μM, 16 hrs, sham 67.4, listed as TOL): 237.2 pg/mL | VEGF production, early time course (VEGF; 10 μM, first 3 hrs): lag in VEGF production | VEGF (VEGF; 20 μM, 1 hr, sham 12.4): 121.2 pg/mL | VEGF (VEGF; 20 μM, 3 hrs, sham 13.2): 148.7 pg/mL | VEGF (VEGF; 20 μM, 6 hrs, sham 42.0): 225 pg/mL | VEGF (VEGF; 20 μM, 6 hrs, sham 42.0, listed as TOL): 225.9 pg/mL | VEGF (VEGF; 20 μM, 16 hrs, sham 67.4): 457 pg/mL | VEGF (VEGF; 20 μM, 16 hrs, sham 67.4, listed as TOL): 457.2 pg/mL
